The values that follow are results of earlier work, collected in patent US20100068291A1, “Oral Medicament Based on a Proton Pump Inhibitor” (FLAMEL TECHNOLOGIES, S.A., priority 2005, published 2010).

For this data set the following is noted: in vivo.

For the molecule `COc1ccc2[nH]c([S+]([O-])Cc3ncc(C)c(OC)c3C)nc2c1` (stereo not shown) [omeprazole], the plasma half-life is 0.5-1 H.
